The values below come from ChEMBL document CHEMBL1137473, “Pyrazole-based cathepsin S inhibitors with improved cellular potency” (Bioorg Med Chem Lett, 2007).

The source made the active and inactive calls. The rule behind the calls is not given here.

Assay [1] addresses T1, Cathepsin S (Homo sapiens, UniProt P25774). Nature of the assay: Inhibition of cathepsin S in human JY cells by invariant chain degradation assay. The assay is classed as cell-based.
Target sequence in this assay (P25774 whole entry): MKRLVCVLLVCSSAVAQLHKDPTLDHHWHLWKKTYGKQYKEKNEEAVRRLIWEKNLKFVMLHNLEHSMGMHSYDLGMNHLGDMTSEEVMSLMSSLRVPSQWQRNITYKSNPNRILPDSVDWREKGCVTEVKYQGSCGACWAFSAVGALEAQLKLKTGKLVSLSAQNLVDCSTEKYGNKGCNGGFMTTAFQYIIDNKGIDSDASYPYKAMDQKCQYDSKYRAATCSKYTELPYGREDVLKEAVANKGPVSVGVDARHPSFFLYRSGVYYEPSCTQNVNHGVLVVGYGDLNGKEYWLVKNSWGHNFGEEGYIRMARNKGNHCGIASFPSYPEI
For assay [2], the target named is T1, Cathepsin S. Nature of the assay: Inhibition of human cathepsin S.
Target sequence in this assay (P25774 whole entry): as above
Assay [3] addresses Procathepsin L (Homo sapiens) (UniProt P07711). Nature of the assay: Inhibition of cathepsin L upto 5 uM.
Assay [4] deals with Cathepsin B (Homo sapiens) (UniProt P07858). Nature of the assay: Inhibition of cathepsin B upto 5 uM.
The target of another assay is T2, Legumain (Homo sapiens) (UniProt Q99538).
T2 sequence (whole entry): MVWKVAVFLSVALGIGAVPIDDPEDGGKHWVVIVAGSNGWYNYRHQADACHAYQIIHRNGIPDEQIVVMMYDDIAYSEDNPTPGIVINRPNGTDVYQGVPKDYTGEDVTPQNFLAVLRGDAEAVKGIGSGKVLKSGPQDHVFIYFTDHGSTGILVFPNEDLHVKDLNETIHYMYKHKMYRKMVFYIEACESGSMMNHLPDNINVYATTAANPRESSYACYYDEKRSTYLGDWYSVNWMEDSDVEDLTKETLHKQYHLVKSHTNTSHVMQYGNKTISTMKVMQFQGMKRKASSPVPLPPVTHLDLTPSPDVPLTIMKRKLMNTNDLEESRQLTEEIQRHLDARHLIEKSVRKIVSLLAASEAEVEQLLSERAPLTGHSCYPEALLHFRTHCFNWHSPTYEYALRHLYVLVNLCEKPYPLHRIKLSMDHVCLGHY
Nature of the assay: Inhibition of legumain upto 5 uM.

Assay [5] concerns the target T3, Cathepsin E (Homo sapiens) (UniProt P14091).
T3 sequence (whole entry): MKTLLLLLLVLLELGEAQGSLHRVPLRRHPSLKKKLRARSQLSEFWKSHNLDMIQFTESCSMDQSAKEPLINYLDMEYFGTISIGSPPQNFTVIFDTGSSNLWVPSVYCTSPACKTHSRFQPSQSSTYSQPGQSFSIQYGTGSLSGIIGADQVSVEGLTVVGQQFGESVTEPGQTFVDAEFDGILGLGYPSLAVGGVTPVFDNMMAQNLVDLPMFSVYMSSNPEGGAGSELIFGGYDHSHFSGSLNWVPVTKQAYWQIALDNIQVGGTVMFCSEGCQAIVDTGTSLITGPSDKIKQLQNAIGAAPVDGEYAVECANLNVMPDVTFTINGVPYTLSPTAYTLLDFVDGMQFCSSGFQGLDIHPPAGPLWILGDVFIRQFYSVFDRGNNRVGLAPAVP
Nature of the assay: Inhibition of cathepsin E upto 5 uM.

In assay [6] the target is T1, Cathepsin S. Nature of the assay: Inhibition of cathepsin S in human JY cells upto 10 uM by invariant chain degradation assay. The assay is classed as cell-based.
Target sequence in this assay (P25774 115-331 limits assumed): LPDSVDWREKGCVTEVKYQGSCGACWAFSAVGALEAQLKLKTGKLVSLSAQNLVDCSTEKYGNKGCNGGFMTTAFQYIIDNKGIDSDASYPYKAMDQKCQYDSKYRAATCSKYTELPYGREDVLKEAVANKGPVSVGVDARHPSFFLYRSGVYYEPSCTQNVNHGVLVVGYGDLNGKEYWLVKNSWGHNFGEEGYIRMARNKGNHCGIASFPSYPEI

Sequence of Procathepsin L (Homo sapiens) (P07711 114-333 limits assumed): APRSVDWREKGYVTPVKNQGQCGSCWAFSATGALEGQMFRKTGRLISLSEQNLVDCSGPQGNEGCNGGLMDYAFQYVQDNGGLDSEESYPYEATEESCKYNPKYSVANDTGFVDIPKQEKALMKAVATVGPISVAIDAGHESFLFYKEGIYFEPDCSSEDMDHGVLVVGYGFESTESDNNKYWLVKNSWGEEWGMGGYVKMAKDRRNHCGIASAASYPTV

`N#Cc1ccccc1N1CCN(CC(Cn2nc(-c3ccc(I)cc3)c3c2CCN(C(N)=O)C3)OC(N)=O)CC1` (stereo unspecified): the IC50 – broadly, the concentration that inhibits the measured activity by half – came to 800 nM at Cathepsin S [1] and 10 nM at Cathepsin S [2].

In turn, `CS(=O)(=O)N1CCc2c(c(-c3ccc(Br)cc3)nn2CC(O)CN2CCC(c3c[nH]c4ncccc34)CC2)C1` (stereo unspecified) registered an IC50 against Cathepsin S [2] of 195 nM.

For `CS(=O)(=O)N1CCc2c(c(-c3ccc(C(F)(F)F)cc3)nn2CC(O)CN2CCC(c3c[nH]c4cccnc34)CC2)C1` (stereo unspecified), the outcome (in assay [3]; in assay [4]; at Legumain (Homo sapiens); in assay [5]) was inactive.

In the case of `COC(=O)c1sc2cc(F)ccc2c1C1CCN(CCCn2nc(-c3ccc(C(F)(F)F)cc3)c3c2CCN(S(C)(=O)=O)C3)CC1`, the half-maximal inhibitory concentration (IC50) on Cathepsin S [1] came to 1800 nM; on Cathepsin S [2], 130 nM.

In turn, `COC(=O)c1sc2cc(F)ccc2c1C1CCN(CC(O)Cn2nc(-c3ccc(C(F)(F)F)cc3)c3c2CCN(C(C)=O)C3)CC1` (stereo unspecified) gave an IC50 against Cathepsin S [2] of 140 nM.

For the compound `CS(=O)(=O)N1CCc2c(c(-c3ccc(C(F)(F)F)cc3)nn2CC(O)CN2CCC(c3csc4cc(F)ccc34)CC2)C1` (stereo unspecified), on Cathepsin S [2], the half-maximal inhibitory concentration (IC50) amounted to 180 nM.

Turning to `CN(C)C(=O)c1sc2cc(F)ccc2c1C1CCN(CCCn2nc(-c3ccc(C(F)(F)F)cc3)c3c2CCN(S(C)(=O)=O)C3)CC1`, at Cathepsin S [2], inhibition was half-maximal at 370 nM (IC50).

Take `CS(=O)(=O)N1CCc2c(c(-c3ccc(C(F)(F)F)cc3)nn2CC(O)CN2CCC(c3c[nH]c4ccncc34)CC2)C1` (stereo unspecified): the result (in assay [3]; in assay [4]; on Legumain (Homo sapiens); in assay [5]) was inactive.

In the case of `CS(=O)(=O)N1CCc2c(c(-c3ccc(Br)cc3)nn2CC(O)CN2CCC(c3c[nH]c4ccncc34)CC2)C1` (stereo unspecified), the IC50 against Cathepsin S [1] was 150 nM; at Cathepsin S [2], 77 nM.

In the case of `CS(=O)(=O)N1CCc2c(c(-c3ccc(C(F)(F)F)cc3)nn2CC(O)CN2CCC(c3c[nH]c4cnccc34)CC2)C1` (stereo unspecified), the outcome (in assay [3]; in assay [4]; on Legumain (Homo sapiens); in assay [5]) was inactive.

Regarding `CS(=O)(=O)N1CCc2c(c(-c3ccc(C(F)(F)F)cc3)nn2CCCN2CCC(c3c(C(=O)O)sc4cc(F)ccc34)CC2)C1`, the IC50 is over 10000 nM against Cathepsin S [1] and 100 nM against Cathepsin S [2].

In turn, `COC(=O)c1oc2cc(F)ccc2c1C1CCN(CC(O)Cn2nc(-c3ccc(C(F)(F)F)cc3)c3c2CCN(C(C)=O)C3)CC1` (stereo unspecified) had a concentration for half-maximal inhibition (IC50) against Cathepsin S [2] of 220 nM.

`CC(=O)N1CCc2c(c(-c3ccc(C(F)(F)F)cc3)nn2CC(O)CN2CCC(c3coc4cc(F)ccc34)CC2)C1` (stereo unspecified) came in with a half-maximal inhibitory concentration (IC50) on Cathepsin S [2] of 360 nM.

Consider `CS(=O)(=O)N1CCc2c(c(-c3ccc(C(F)(F)F)cc3)nn2CC(O)CN2CCC(N3C(=O)COc4ccccc43)CC2)C1` (stereo unspecified), for which the IC50 against Cathepsin S [1] was 800 nM; on Cathepsin S [2], 10 nM.

For `Cn1c(=O)n(C2CCN(CCCn3nc(-c4ccc(Cl)c(Cl)c4)c4c3CCN(S(C)(=O)=O)C4)CC2)c2ccccc21`, the 50% inhibitory concentration (IC50) against Cathepsin S [1] amounted to 800 nM; against Cathepsin S [2] it was 10 nM.

As for `CC(=O)N1CCc2c(c(-c3ccc(C(F)(F)F)cc3)nn2CC(O)CN2CCC(c3c[nH]c4ccc(Cl)cc34)CC2)C1` (stereo unspecified), the concentration for half-maximal inhibition (IC50) against Cathepsin S [2] came to 95 nM. Further, at Cathepsin S [6], the result was inactive.

At Cathepsin S [2], `CC(=O)N1CCc2c(c(-c3ccc(C(F)(F)F)cc3)nn2CC(O)CN2CCC(c3csc4cc(F)ccc34)CC2)C1` (stereo unspecified) showed an IC50 of 290 nM.

Turning to `CS(=O)(=O)N1CCc2c(c(-c3ccc(C(F)(F)F)cc3)nn2CC(O)CN2CCC(c3c[nH]c4ncccc34)CC2)C1` (stereo unspecified), the result (in assay [3]; at Legumain (Homo sapiens); in assay [5]) was inactive.
